The values below come from US20230095520A1, “PHARMACEUTICAL COMPOSITION FOR PREVENTING OR TREATING CANCER COMPRISING AZOLE DERIVATIVES OR PHARMACEUTICALLY ACCEPTABLE SALT THEREOF” (Yungjin Pharm. Co., Ltd., priority 2020, published 2023).

For this assay, the target named is T1, Recombinant purified human CDK7 (Homo sapiens, UniProt P50613).
T1 construct: purchased ThermoFisher PV3868
The assay can be described thus: CDK7 activity inhibition, ADP-Glo kinase assay. In kind it is biochemical. The conditions noted are these: ATP 90 μM, MBP substrate, 2 hours 30° C. The protocol:
Recombinant purified human CDK7 (ThermoFisher, PV3868) and ADP Glo Kinase Assay Kit (Promega, V9102) were used. CDK7 was diluted with 1× kinase reaction buffer (40 mM Tris-Cl, pH 7.5, 20 mM MgCl2, 0.1 mg/ml BSA and 50 μM DTT) and added to a 96 well plate (CDK7 final concentration per reaction: 50 ng). It was finally treated with the compound of the present invention to a 1% DMSO aqueous solution, and a substrate cocktail containing ATP (final concentration of 90 μM) and 0.2 μg/μl MBP (myelin basic protein) in a total of 25 μl reaction mass was added to a 96 well plate, thereby initiating the enzymatic reaction. After 2 hours of incubation (30° C.), an equal volume (25 μl per reaction) of ADP Glo was added and incubated at room temperature for 60 minutes (30° C.). Thereafter, kinase detection reagent (50 μl per reaction) was added and incubated at room temperature for 30 minutes (30° C.). The kinase activity was measured by the chemiluminescence method according to the ADP Glo Kinase Assay Kit instruction manual, and the CDK7 inhibitory activity of the compounds of the present invention was calculated.

T1 sequence (P50613 whole entry): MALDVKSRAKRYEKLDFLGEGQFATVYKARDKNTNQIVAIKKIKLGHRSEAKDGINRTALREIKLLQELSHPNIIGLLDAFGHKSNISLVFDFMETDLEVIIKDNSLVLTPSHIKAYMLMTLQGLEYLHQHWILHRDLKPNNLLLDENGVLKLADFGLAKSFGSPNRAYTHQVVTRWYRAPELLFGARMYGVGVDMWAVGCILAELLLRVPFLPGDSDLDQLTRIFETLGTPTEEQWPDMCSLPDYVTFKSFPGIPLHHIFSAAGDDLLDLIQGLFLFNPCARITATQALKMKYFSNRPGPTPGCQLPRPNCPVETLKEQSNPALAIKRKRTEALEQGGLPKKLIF
T1 sequence (P51946 whole entry partner): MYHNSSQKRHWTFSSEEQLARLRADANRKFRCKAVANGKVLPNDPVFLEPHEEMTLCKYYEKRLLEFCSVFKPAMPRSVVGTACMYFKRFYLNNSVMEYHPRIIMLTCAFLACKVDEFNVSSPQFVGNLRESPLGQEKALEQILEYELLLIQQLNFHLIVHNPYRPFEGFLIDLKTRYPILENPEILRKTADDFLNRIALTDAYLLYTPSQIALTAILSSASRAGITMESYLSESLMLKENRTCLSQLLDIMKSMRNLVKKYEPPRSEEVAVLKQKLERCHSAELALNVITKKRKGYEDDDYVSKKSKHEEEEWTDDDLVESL
T1 sequence (P51948 whole entry partner): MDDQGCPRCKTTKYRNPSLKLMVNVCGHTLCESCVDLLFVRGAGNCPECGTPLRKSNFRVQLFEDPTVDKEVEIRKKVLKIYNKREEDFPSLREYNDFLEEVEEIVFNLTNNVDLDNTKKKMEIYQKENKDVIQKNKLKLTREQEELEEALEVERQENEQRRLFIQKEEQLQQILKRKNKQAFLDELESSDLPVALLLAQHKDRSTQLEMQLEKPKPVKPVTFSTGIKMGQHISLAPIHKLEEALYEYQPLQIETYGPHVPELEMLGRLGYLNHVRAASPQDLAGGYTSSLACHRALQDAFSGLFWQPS

As a reminder, the IC50 is the concentration that inhibits the measured activity by half. Regarding `C=CC(=O)Nc1ccc(-c2cccc(C(C)C(=O)Nc3ncc(C4CC4)s3)c2)cn1` (centres unmarked) [Compound 2, N-(5-(3-(1-((5-cyclopropylthiazol-2-yl)amino)-1-oxopropan-2-yl)phenyl)pyridin-2-yl)acrylamide], the IC50 came out at 40 nM.
Turning to `CC(C(=O)Nc1ncc(C2CC2)s1)c1cccc(-c2ccc(NC(=O)/C=C/CN(C)C)nc2)c1` (centres unmarked) [Compound 6, (E)-N-(5-(3-(1-((5-cyclopropylthiazol-2-yl)amino)-1-oxopropan-2-yl)phenyl)pyridin-2-yl)-4-(dimethylamino)but-2-enamide], the 50% inhibitory concentration (IC50) amounted to 35 nM.
For `C=CC(=O)Nc1ccc(-c2csc(C(C)C(=O)Nc3ncc(Cl)s3)c2)cn1` (centres unmarked) [Compound 76, N-(5-(5-(1-((5-chlorothiazol-2-yl)amino)-1-oxopropan-2-yl)thiophen-3-yl)pyridin-2-yl)acrylamide] the value was 92 nM; for `C=CC(=O)Nc1cc(F)c(-c2cncc(C(C)C(=O)Nc3ncc(C(F)(F)F)s3)c2)cn1` (centres unmarked) [Compound 84, N-(4-fluoro-5′-(1-oxo-1-((5-(trifluoromethyl)thiazol-2-yl)amino)propan-2-yl)-[3,3′-bipyridin]-6-yl)acrylamide], 68 nM.
For `C=CC(=O)Nc1ncc(-c2cncc(C(C)C(=O)Nc3ncc(C(F)(F)F)s3)c2)cc1C#N` (centres unmarked) [Compound 88, N-(5-cyano-5′-(1-oxo-1-((5-(trifluoromethyl)thiazol-2-yl)amino)propan-2-yl)-[3,3′-bipyridin]-6-yl)acrylamide] the value was 16 nM.
For `C[C@H](C(=O)Nc1ncc(C(F)(F)F)s1)c1cccc(-c2cnc(NC(=O)/C=C/CN3CCOCC3)cn2)c1` [Compound 92, (S,E)-4-morpholino-N-(5-(3-(1-oxo-1-((5-(trifluoromethyl)thiazol-2-yl)amino)propan-2-yl)phenyl)pyrazin-2-yl)but-2-enamide], the 50% inhibitory concentration (IC50) was found to be 42 nM.
For the molecule `C[C@H](C(=O)Nc1ncc(Cl)s1)c1cccc(-c2cnc(NC(=O)/C=C/CN(C)C)cn2)c1` [Compound 93, (S,E)-N-(5-(3-(1-((5-chlorothiazol-2-yl)amino)-1-oxopropan-2-yl)phenyl)pyrazin-2-yl)-4-(dimethylamino)but-2-enamide], the half-maximal inhibitory concentration (IC50) amounted to 93 nM.
For `C[C@H](C(=O)Nc1ncc(Cl)s1)c1cccc(-c2cnc(NC(=O)/C=C/CN3CC4CC3CO4)cn2)c1` (stereo partly drawn) [Compound 94, (E)-4-(2-oxa-5-azabicyclo[2.2.1]heptan-5-yl)-N-(5-(3-((S)-1-((5-chlorothiazol-2-yl)amino)-1-oxopropan-2-yl)phenyl)pyrazin-2-yl)but-2-enamide] the value was 14.5 nM; for `C[C@H](C(=O)Nc1ncc(C(F)(F)F)s1)c1cccc(-c2cnc(NC(=O)/C=C/CN3CCN(C)CC3)cn2)c1` [Compound 95, (S,E)-4-(4-methylpiperazin-1-yl)-N-(5-(3-(1-oxo-1-((5-(trifluoromethyl)thiazol-2-yl)amino)propan-2-yl)phenyl)pyrazin-2-yl)but-2-enamide], 80.4 nM.
For `C[C@H](C(=O)Nc1ncc(Cl)s1)c1cccc(-c2cnc(NC(=O)/C=C/CN3CCOCC3)cn2)c1` [Compound 98, (S,E)-N-(5-(3-(1-((5-chlorothiazol-2-yl)amino)-1-oxopropan-2-yl)phenyl)pyrazin-2-yl)-4-morpholinobut-2-enamide] the value was 87 nM; for `COc1cc(-c2cccc([C@H](C)C(=O)Nc3ncc(C(F)(F)F)s3)c2)cnc1NC(=O)/C=C/CN(C)C` [Compound 100, (S,E)-4-(dimethylamino)-N-(3-methoxy-5-(3-(1-oxo-1-((5-(trifluoromethyl)thiazol-2-yl)amino)propan-2-yl)phenyl)pyridin-2-yl)but-2-enamide], 9.8 nM.
For `C[C@H](C(=O)Nc1ncc(C(F)(F)F)s1)c1cccc(-c2cnc(NC(=O)/C=C/CN3CCCC3)cn2)c1` [Compound 102, (S,E)-N-(5-(3-(1-oxo-1-((5-(trifluoromethyl)thiazol-2-yl)amino)propan-2-yl)phenyl)pyrazin-2-yl)-4-(pyrrolidin-1-yl)but-2-enamide] the value was 13 nM.
With `C[C@H](C(=O)Nc1ncc(C(F)(F)F)s1)c1cccc(-c2cnc(NC(=O)/C=C/CN3CCC3)cn2)c1` [Compound 103, (S,E)-4-(azetidin-1-yl)-N-(5-(3-(1-oxo-1-((5-(trifluoromethyl)thiazol-2-yl)amino)propan-2-yl)phenyl)pyrazin-2-yl)but-2-enamide], the half-inhibitory concentration (IC50) stood at 13 nM.
For `C[C@H](C(=O)Nc1ncc(N(C)C)s1)c1cccc(-c2cnc(NC(=O)/C=C/CN(C)C)cn2)c1` [Compound 106, (S,E)-4-(dimethylamino)-N-(5-(3-(1-((5-(dimethylamino)thiazol-2-yl)amino)oxopropan-2-yl)phenyl)pyrazin-2-yl)but-2-enamide], the half-maximal inhibitory concentration (IC50) is 71 nM.
For `CC(C(=O)Nc1ncc(C(F)(F)F)s1)c1cncc(-c2ccc(NC(=O)/C=C/CN(C)C)nc2)c1` (centres unmarked) [Compound 107, (E)-4-(dimethylamino)-N-(5′-(1-oxo-1-((5-(trifluoromethyl)thiazol-2-yl)amino)propan-2-yl)-[3,3′-bipyridin]-6-yl)but-2-enamide] the value was 31 nM; for `COc1nc(-c2cccc([C@H](C)C(=O)Nc3ncc(C(F)(F)F)s3)c2)cnc1NC(=O)/C=C/CN(C)C` [Compound 109, (S,E)-4-(dimethylamino)-N-(3-methoxy-5-(3-(1-oxo-1-((5-(trifluoromethyl)thiazol-2-yl)amino)propan-2-yl)phenyl)pyrazin-2-yl)but-2-enamide], 8.2 nM; for `C[C@H](C(=O)Nc1ncc(C(F)(F)F)s1)c1cccc(-c2cnc3c(c2)CCN3C(=O)/C=C/CN(C)C)c1` [Compound 110, (S,E)-2-(3-(1-(4-(dimethylamino)but-2-enoyl)-2,3-dihydro-1H-pyrrolo[2,3-b]pyridin-5-yl)phenyl)-N-(5-(trifluoromethyl)thiazol-2-yl)propanamide], 5.9 nM.
For `C[C@H](C(=O)Nc1ncc(C(F)(F)F)s1)c1cccc(-c2cnc(NC(=O)/C=C/CN(C)C)c(C(F)(F)F)c2)c1` [Compound 111, (S,E)-4-(dimethylamino)-N-(5-(3-(1-oxo-1-((5-(trifluoromethyl)thiazol-2-yl)amino)propan-2-yl)phenyl)-3-(trifluoromethyl)pyridin-2-yl)but-2-enamide] the value was 9.5 nM; for `Cc1cc(-c2cccc([C@H](C)C(=O)Nc3ncc(C(F)(F)F)s3)c2)cnc1NC(=O)/C=C/CN(C)C` [Compound 112, (S,E)-4-(dimethylamino)-N-(3-methyl-5-(3-(1-oxo-1-((5-(trifluoromethyl)thiazol-2-yl)amino)propan-2-yl)phenyl)pyridin-2-yl)but-2-enamide], 17 nM; for `C[C@H](C(=O)Nc1ncc(C(F)(F)F)s1)c1cccc(-c2cnc(NC(=O)/C=C/CN(C)C)c(Cl)c2)c1` [Compound 113, (S,E)-N-(3-chloro-5-(3-(1-oxo-1-((5-(trifluoromethyl)thiazol-2-yl)amino)propan-2-yl)phenyl)pyridin-2-yl)-4-(dimethylamino)but-2-enamide], 8.5 nM.
For `CCN(CC)C/C=C/C(=O)Nc1cnc(-c2cccc([C@H](C)C(=O)Nc3ncc(C(F)(F)F)s3)c2)cn1` [Compound 114, (S,E)-4-(diethylamino)-N-(5-(3-(1-oxo-1-((5-(trifluoromethyl)thiazol-2-yl)amino)propan-2-yl)phenyl)pyrazin-2-yl)but-2-enamide], the IC50 was 12 nM.
For `C[C@H](C(=O)Nc1ncc(C(F)(F)F)s1)c1cccc(-c2ccc(NC(=O)/C=C/CN(C)C)nc2)c1` [Compound 116, (S,E)-4-(dimethylamino)-N-(5-(3-(1-oxo-1-((5-(trifluoromethyl)thiazol-2-yl)amino)propan-2-yl)phenyl)pyridin-2-yl)but-2-enamide] the value was 13.5 nM.
For `C[C@H](C(=O)Nc1ncc(C(F)(F)F)s1)c1cccc(-c2cnc(NC(=O)/C=C/CN3CC[C@H](F)C3)cn2)c1` [Compound 117, (E)-4-((S)-3-fluoropyrrolidin-1-yl)-N-(5-(3-((S)-1-oxo-1-((5-(trifluoromethyl)thiazol-2-yl)amino)propan-2-yl)phenyl)pyrazin-2-yl)but-2-enamide], the IC50 was 15.4 nM.
For `COC[C@@H]1CCCN1C/C=C/C(=O)Nc1cnc(-c2cccc([C@H](C)C(=O)Nc3ncc(C(F)(F)F)s3)c2)cn1` [Compound 118, (E)-4-((S)-2-(methoxymethyl)pyrrolidin-1-yl)-N-(5-(3-((S)-1-oxo-1-((5-(trifluoromethyl)thiazol-2-yl)amino)propan-2-yl)phenyl)pyrazin-2-yl)but-2-enamide], the IC50 was found to be 20 nM.
With `C[C@H](C(=O)Nc1ncc(C(F)(F)F)s1)c1cccc(-c2cnc(NC(=O)/C=C/CN3CCCCC3)cn2)c1` [Compound 120, (S,E)-N-(5-(3-(1-oxo-1-((5-(trifluoromethyl)thiazol-2-yl)amino)propan-2-yl)phenyl)pyrazin-2-yl)-4-(piperidin-1-yl)but-2-enamide], the IC50 was determined as 16 nM.
As to `CCc1cnc(NC(=O)[C@@H](C)c2cccc(-c3cnc4c(c3)CCN4C(=O)/C=C/CN(C)C)c2)s1` [Compound 122, (S,E)-2-(3-(1-(4-(dimethylamino)but-2-enoyl)-2,3-dihydro-1H-pyrrolo[2,3-b]pyridin-5-yl)phenyl)-N-(5-ethylthiazol-2-yl)propanamide], the IC50 stood at 6 nM.
